From US10000501B2, “Inhibitors of HIF prolyl hydroxylase” (MERCK SHARP & DOHME CORP., priority 2014, dated 2018) come the findings set out here.

Usually IC50 stands for the midpoint of a concentration-inhibition curve.

The assay deals with T1, human HIF-PHD2 (Homo sapiens, UniProt Q9GZT9).
T1 construct: FLAG-tagged full length PHD2 expressed in and purified from baculovirus-infected Sf9 cells; FLAG; made in house; host or cells: baculovirus-infected Sf9 cells
T1 sequence (Q9GZT9 whole entry): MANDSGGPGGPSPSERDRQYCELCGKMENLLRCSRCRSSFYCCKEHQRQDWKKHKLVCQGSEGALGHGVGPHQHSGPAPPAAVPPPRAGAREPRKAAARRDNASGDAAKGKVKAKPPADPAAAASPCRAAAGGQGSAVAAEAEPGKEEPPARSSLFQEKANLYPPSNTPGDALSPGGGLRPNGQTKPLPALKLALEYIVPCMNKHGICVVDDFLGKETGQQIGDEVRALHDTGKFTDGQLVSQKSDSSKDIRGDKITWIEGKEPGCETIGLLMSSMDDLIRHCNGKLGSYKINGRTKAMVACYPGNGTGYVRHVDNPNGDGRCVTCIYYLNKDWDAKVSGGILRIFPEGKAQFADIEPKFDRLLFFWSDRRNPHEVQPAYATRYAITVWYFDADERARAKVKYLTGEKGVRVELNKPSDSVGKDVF
The assay can be described thus: HIF-PHD2 inhibition assay (hydroxylation of HIF-1α peptide, time resolved fluorescence). In kind it is biochemical. To be noted: FLAG-tagged full length PHD2; 0.2 μM 2-oxoglutarate, 0.5 μM HIF-1α peptide. As for the experimental part: To each well of a 384-well plate, 1 μL of test compounds in DMSO (final concentration ranging from 0.3 nM to 10 uM) were added into 20 μl of assay buffer (50 mM Tris pH 7.4/0.01% Tween-20/0.1 mg/ml bovine serum albumin/10 μM ferrous sulfate/1 mM sodium ascorbate/20 μg/ml catalase) containing 0.15 μg/ml FLAG-tagged full length PHD2 expressed in and purified from baculovirus-infected Sf9 cells. […] Purif.
`O=C(O)CNC(=O)c1c(O)c2c(n(Cc3ccncc3)c1=O)COCC2` [Example 60, 2-(4-hydroxy-2-oxo-1-(pyridin-4-ylmethyl)-2,5,6,8-tetrahydro-1H-pyrano[3,4-b]pyridine-3-carboxamido)acetic acid] showed an IC50 of 30.4 nM.
With `CCn1c2c(c(O)c(C(=O)NCC(=O)O)c1=O)COCC2` [Example 19, 2-(1-ethyl-4-hydroxy-2-oxo-2,5,7,8-tetrahydro-1H-pyrano[4,3-b]pyridine-3-carboxamido)acetic acid], the midpoint of inhibition, the IC50, lay at 78.5 nM.
Consider `O=C(O)CNC(=O)c1c(O)c2c(n(Cc3ccn(-c4ccccc4)n3)c1=O)CCOC2` [Example 32, 2-(4-Hydroxy-2-oxo-1-((1-phenyl-1H-pyrazol-3-yl)methyl)-2,5,7,8-tetrahydro-1H-pyrano[4,3-b]pyridine-3-carboxamido)acetic acid], for which the half-maximal inhibitory concentration (IC50) turned out to be 12.1 nM.
`N#Cc1cccc(Cn2c3c(c(O)c(C(=O)NCC(=O)O)c2=O)CCOC3)c1` [Example 57, 2-(1-(3-cyanobenzyl)-4-hydroxy-2-oxo-2,5,6,8-tetrahydro-1H-pyrano[3,4-b]pyridine-3-carboxamido)acetic acid] had an IC50 of 35.2 nM.
The same measure for `O=C(O)CNC(=O)c1c(O)c2c(n(Cc3ccc(Cl)cc3)c1=O)COCC2` [Example 37, 2-(1-(4-Chlorobenzyl)-4-hydroxy-2-oxo-2,5,6,8-tetrahydro-1H-pyrano[3,4-b]pyridine-3-carboxamido)acetic acid]: 50.2 nM; for `O=C(O)CNC(=O)c1c(O)c2c(n(Cc3cncs3)c1=O)COCC2` [Example 62, 2-(4-hydroxy-2-oxo-1-(thiazol-5-ylmethyl)-2,5,6,8-tetrahydro-1H-pyrano[3,4-b]pyridine-3-carboxamido)acetic acid]: 44.1 nM; for `O=C(O)CNC(=O)c1c(O)c2c(n(Cc3ccc(C(F)(F)F)cc3)c1=O)C1CCC2C1` (stereo not shown) [Example 83, 2-(-4-hydroxy-2-oxo-1-(4-(trifluoromethyl)benzyl)-1,2,5,6,7,8-hexahydro-5,8-methanoquinoline-3-carboxamide)acetic acid]: 46 nM.
The same measure for `O=C(O)CNC(=O)c1c(O)c2c(n(Cc3ccc(OC(F)F)cc3)c1=O)CCOC2` [Example 8, 2-(1-(4-(difluoromethxoy)benzyl)-4-hydroxy-2-oxo-2,5,7,8-tetrahydro-1H-pyrano[4,3-b]pyridine-3-carboxamido)acetic acid]: 13.4 nM; for `O=C(O)CNC(=O)c1c(O)c2c(n(Cc3ccc(F)c(F)c3)c1=O)COCC2` [Example 54, 2-(1-(3,4-difluorobenzyl)-4-hydroxy-2-oxo-2,5,6,8-tetrahydro-1H-pyrano[3,4-b]pyridine-3-carboxamido)acetic acid]: 30.8 nM; for `N#Cc1ccc(Cn2c3c(c(O)c(C(=O)NCC(=O)O)c2=O)COCC3)cc1F` [Example 29, 2-(1-(4-Cyano-3-fluorobenzyl)-4-hydroxy-2-oxo-2,5,7,8-tetrahydro-1H-pyrano[4,3-b]pyridine-3-carboxamido)acetic acid]: 16 nM.
Turning to `O=C(O)CNC(=O)c1c(O)c2c(n(Cc3csc(C(F)(F)F)n3)c1=O)CCOC2` [Example 35, 2-(4-Hydroxy-2-oxo-1-((2-(trifluoromethyl)thiazol-4-yl)methyl)-2,5,7,8-tetrahydro-1H-pyrano[4,3-b]pyridine-3-carboxamido)acetic acid], the IC50 stood at 15.1 nM.
In turn, `O=C(O)CNC(=O)c1c(O)c2c(n(Cc3ccc(-c4ccc(Cl)cc4)cc3)c1=O)COCC2` [Example 67, 2-(1-((4′-chloro-[1,1′-biphenyl]-4-yl)methyl)-4-hydroxy-2-oxo-2,5,6,8-tetrahydro-1H-pyrano[3,4-b]pyridine-3-carboxamido)acetic acid] returned an IC50 of 13.5 nM.
Next, `O=C(O)CNC(=O)c1c(O)c2c(n(CC3CCCCC3)c1=O)CCOC2` [Example 20, 2-(1-(cyclohexylmethyl)-4-hydroxy-2-oxo-2,5,7,8-tetrahydro-1H-pyrano[4,3-b]pyridine-3-carboxamido)acetic acid]: 76 nM; `Cc1cc(Cn2c3c(c(O)c(C(=O)NCC(=O)O)c2=O)CCOC3)ccc1C#N` [Example 45, 2-(1-(4-cyano-3-methylbenzyl)-4-hydroxy-2-oxo-2,5,6,8-tetrahydro-1H-pyrano[3,4-b]pyridine-3-carboxamido)acetic acid]: 90.1 nM; `O=C(O)CNC(=O)c1c(O)c2c(n(Cc3cnc(-c4ccccc4)s3)c1=O)C1CCC2C1` (stereo not shown) [Example 84, 2-(-4-hydroxy-2-oxo-1-((2-phenylthiazol-5-yl)methyl)-1,2,5,6,7,8-hexahydro-5,8-methanoquinoline-3-carboxamido)acetic acid]: 19 nM.
`CC(C)c1ccc(Cn2c3c(c(O)c(C(=O)NCC(=O)O)c2=O)CCOC3)cc1` [Example 39, 2-(4-hydroxy-1-(4-isopropylbenzyl)-2-oxo-2,5,6,8-tetrahydro-1H-pyrano[3,4-b]pyridine-3-carboxamido)acetic acid] yielded a half-inhibitory concentration (IC50) of 42.2 nM.
Molecule `O=C(O)CNC(=O)c1c(O)c2c(n(Cc3ccccn3)c1=O)COCC2` [Example 59, 2-(4-hydroxy-2-oxo-1-(pyridin-2-ylmethyl)-2,5,6,8-tetrahydro-1H-pyrano[3,4-b]pyridine-3-carboxamido)acetic acid] came in with an IC50 of 44.2 nM.
The molecule `O=C(O)CNC(=O)c1c(O)c2c(n(Cc3ncc(C(F)(F)F)cn3)c1=O)COCC2` [Example 46, 2-(4-hydroxy-2-oxo-1-((5-(trifluoromethyl)pyrimidin-2-yl)methyl)-2,5,6,8-tetrahydro-1H-pyrano[3,4-b]pyridine-3-carboxamido)acetic acid] yielded an IC50 of 90.1 nM.
The same measure for `CS(=O)(=O)c1ccc(Cn2c3c(c(O)c(C(=O)NCC(=O)O)c2=O)CCOC3)cc1` [Example 41, 2-(4-hydroxy-1-(4-(methylsulfonyl)benzyl)-2-oxo-2,5,6,8-tetrahydro-1H-pyrano[3,4-b]pyridine-3-carboxamido)acetic acid]: 28.7 nM; for `CC(C)(O)c1ccc(Cn2c3c(c(O)c(C(=O)NCC(=O)O)c2=O)COCC3)cc1` [Example 33, 2-(4-Hydroxy-1-(4-(2-hydroxypropan-2-yl)benzyl)-2-oxo-2,5,7,8-tetrahydro-1H-pyrano[4,3-b]pyridine-3-carboxamido)acetic acid]: 49.9 nM.
With `O=C(O)CNC(=O)c1c(O)c2c([nH]c1=O)CCOC2` [Example 4, 2-(4-Hydroxy-2-oxo-2,5,7,8-tetrahydro-1H-pyrano[4,3-b]pyridine-3-carboxamido)acetic acid], the half-maximal inhibitory concentration (IC50) stood at 41.8 nM.
On to `NC(=O)c1ccc(-c2ccc(Cn3c4c(c(O)c(C(=O)NCC(=O)O)c3=O)CCOC4)cc2)cc1` [Example 68, 2-(1-((4′-carbamoyl-[1,1′-biphenyl]-4-yl)methyl)-4-hydroxy-2-oxo-2,5,6,8-tetrahydro-1H-pyrano[3,4-b]pyridine-3-carboxamido)acetic acid], for which it took 7.8 nM to reach half-maximal inhibition (IC50).
Regarding `CN1Cc2c(c(O)c(C(=O)NCC(=O)O)c(=O)n2Cc2ccc(C(F)(F)F)cc2)CC1=O` [Example 3, 2-(4-Hydroxy-7-methyl-2,6-dioxo-1-(4-(trifluoromethyl)benzyl)-1,2,5,6,7,8-hexahydro-1,7-naphthyridine-3-carboxamido)acetic acid], half-maximal inhibition (IC50) required 6.7 nM.
As for `CNC(=O)c1ccc(Cn2c3c(c(O)c(C(=O)NCC(=O)O)c2=O)COCC3)cc1` [Example 26, 2-(4-Hydroxy-1-(4-(methylcarbamoyl)benzyl)-2-oxo-2,5,7,8-tetrahydro-1H-pyrano[4,3-b]pyridine-3-carboxamido)acetic acid], the 50% inhibitory concentration (IC50) is 30.8 nM.
The molecule `O=C(O)CNC(=O)c1c(O)c2c(n(Cc3ccc(OC(F)(F)F)cc3)c1=O)COCC2` [Example 52, 2-(4-hydroxy-2-oxo-1-(4-(trifluoromethoxy)benzyl)-2,5,6,8-tetrahydro-1H-pyrano[3,4-b]pyridine-3-carboxamido)acetic acid] gave an IC50 of 24.1 nM.
Molecule `CN1Cc2c(c(O)c(C(=O)NCC(=O)O)c(=O)n2Cc2ccccc2Cl)CC1=O` [Example 76, 2-(1-(2-chlorobenzyl)-4-hydroxy-7-methyl-2,6-dioxo-1,2,5,6,7,8-hexahydro-1,7-naphthyridine-3-carboxamido)acetic acid] registered an IC50 of 10.6 nM.
`O=C(O)CNC(=O)c1c(O)c2c(n(Cc3ccc(F)c(F)c3)c1=O)CCOC2` [Example 15, 2-(1-(3,4-difluorobenzyl)-4-hydroxy-2-oxo-2,5,7,8-tetrahydro-1H-pyrano[4,3-b]pyridine-3-carboxamido)acetic acid] yielded a half-maximal inhibitory concentration (IC50) of 14.7 nM.
The molecule `O=C(O)CNC(=O)c1c(O)c2c(n(Cc3ccccc3Cl)c1=O)COCC2` [Example 58, 2-(1-(2-chlorobenzyl)-4-hydroxy-2-oxo-2,5,6,8-tetrahydro-1H-pyrano[3,4-b]pyridine-3-carboxamido)acetic acid] displayed a half-maximal inhibitory concentration (IC50) of 25.5 nM.
In the case of `O=C(O)CNC(=O)c1c(O)c2c(n(Cc3ccc(-c4ccc(OC(F)(F)F)cc4)cc3)c1=O)COCC2` [Example 66, 2-(4-hydroxy-2-oxo-1-((4′-(trifluoromethoxy)-[1,1′-biphenyl]-4-yl)methyl)-2,5,6,8-tetrahydro-1H-pyrano[3,4-b]pyridine-3-carboxamido)acetic acid], the 50% inhibitory concentration (IC50) came to 28.8 nM.
Regarding `O=C(O)CNC(=O)c1c(O)c2c(n(Cc3ncc(C(F)(F)F)cn3)c1=O)CCOC2` [Example 23, 2-(4-hydroxy-2-oxo-1-((5-(trifluoromethyl)pyrimidin-2-yl)methyl)-2,5,7,8-tetrahydro-1H-pyrano[4,3-b]pyridine-3-carboxamido)acetic acid], the IC50 is 44.5 nM.
`O=C(O)CNC(=O)c1c(O)c2c(n(Cc3ccc(OC(F)F)cc3)c1=O)COCC2` [Example 49, 2-(1-(4-(difluoromethoxy)benzyl)-4-hydroxy-2-oxo-2,5,6,8-tetrahydro-1H-pyrano[3,4-b]pyridine-3-carboxamido)acetic acid]: the IC50 is 28.6 nM.
